Assay results: ChEMBL document CHEMBL5523746, “Discovery of Novel Peptide Antagonists Targeting GPR55 for Liver Inflammation and Fibrosis” (2024)
Bridge positions count the residues as written; N and C are the ends. Peptide text beside a SMILES is read from it.

Tests used:
[1] = tested on: LX-2; experiment: Anti-fibrotic activity in human LX2 cells assessed as reduction in […] expression by measuring relative inhibition rate measured after 24 hrs incubation by Western blot analysis relative to control; assay type: functional; parameters: concentration or dose not given beside the values
[2] = tested on: LX-2; experiment: Anti-fibrotic activity in human LX2 cells assessed as reduction in COL1alpha expression by measuring relative inhibition rate measured after 24 hrs incubation by Western blot analysis relative to control; assay type: functional; parameters: concentration or dose not given beside the values

Structure (SMILES) | Activity [1] | Activity [2]
CC(C)C[C@@H]1NC(=O)[C@H]([C@@H](C)O)NC(=O)[C@@H]2CCCN2C(=O)[C@H](CO)NC(=O)[C@H](CC(N)=O)NC(=O)[C@H](CCCCN)NC(=O)[C@H](C)NC(=O)[C@@H](N)CSSC[C@@H](C(=O)O)NC1=O (H-CAKNSPTLC-OH; disulfide 1-9) | 76.4% | 90.3%
CC(C)C[C@@H]1NC(=O)[C@H]([C@@H](C)O)NC(=O)[C@@H]2CCCN2C(=O)[C@H](CO)NC(=O)[C@H](CC(N)=O)NC(=O)[C@H](C)NC(=O)[C@H](CCCCN)NC(=O)[C@@H](N)CSSC[C@@H](C(=O)O)NC1=O (H-CKANSPTLC-OH; disulfide 1-9) | 88.9% | 139.1%
CC(C)C[C@@H]1NC(=O)[C@H]([C@@H](C)O)NC(=O)[C@@H]2CCCN2C(=O)[C@H](CO)NC(=O)[C@H](C)NC(=O)[C@H](CCCCN)NC(=O)[C@H](CCCCN)NC(=O)[C@@H](N)CSSC[C@@H](C(=O)O)NC1=O (H-CKKASPTLC-OH; disulfide 1-9) | 87.7% | 132.9%
CC(C)C[C@@H]1NC(=O)[C@H]([C@@H](C)O)NC(=O)[C@@H]2CCCN2C(=O)[C@H](CO)NC(=O)[C@H](CC(=O)O)NC(=O)[C@H](CCCCN)NC(=O)[C@H](CCCCN)NC(=O)[C@@H](N)CSSC[C@@H](C(=O)O)NC1=O (H-CKKDSPTLC-OH; disulfide 1-9) | 82.4% | 64.7%
CC(C)C[C@@H]1NC(=O)[C@H]([C@@H](C)O)NC(=O)[C@@H]2CCCN2C(=O)[C@H](C)NC(=O)[C@H](CC(N)=O)NC(=O)[C@H](CCCCN)NC(=O)[C@H](CCCCN)NC(=O)[C@@H](N)CSSC[C@@H](C(=O)O)NC1=O (H-CKKNAPTLC-OH; disulfide 1-9) | 74.5% | 99.4%
CC(C)C[C@@H]1NC(=O)[C@H]([C@@H](C)O)NC(=O)[C@H](C)NC(=O)[C@H](CO)NC(=O)[C@H](CC(N)=O)NC(=O)[C@H](CCCCN)NC(=O)[C@H](CCCCN)NC(=O)[C@@H](N)CSSC[C@@H](C(=O)O)NC1=O (H-CKKNSATLC-OH; disulfide 1-9) | 91.8% | 140.1%
CC(C)C[C@@H]1NC(=O)[C@H](CO)NC(=O)[C@H](CC(N)=O)NC(=O)[C@H](CCCCN)NC(=O)[C@H](CCCCN)NC(=O)[C@@H](N)CSSC[C@@H](C(=O)O)NC(=O)[C@H](CC(C)C)NC(=O)[C@H]([C@@H](C)O)NC1=O (H-CKKNSLTLC-OH; disulfide 1-9) | 68.9% | 66.1%
CC(C)C[C@@H]1NC(=O)[C@H](C)NC(=O)[C@@H]2CCCN2C(=O)[C@H](CO)NC(=O)[C@H](CC(N)=O)NC(=O)[C@H](CCCCN)NC(=O)[C@H](CCCCN)NC(=O)[C@@H](N)CSSC[C@@H](C(=O)O)NC1=O (H-CKKNSPALC-OH; disulfide 1-9) | 61.2% | 79.7%
CC(C)C[C@@H]1NC(=O)[C@H](CCC(=O)O)NC(=O)[C@@H]2CCCN2C(=O)[C@H](CO)NC(=O)[C@H](CC(N)=O)NC(=O)[C@H](CCCCN)NC(=O)[C@H](CCCCN)NC(=O)[C@@H](N)CSSC[C@@H](C(=O)O)NC1=O (H-CKKNSPELC-OH; disulfide 1-9) | 82.9% | 59.2%
CC(C)C[C@@H]1NC(=O)[C@H](CCCNC(=N)N)NC(=O)[C@@H]2CCCN2C(=O)[C@H](CO)NC(=O)[C@H](CC(N)=O)NC(=O)[C@H](CCCCN)NC(=O)[C@H](CCCCN)NC(=O)[C@@H](N)CSSC[C@@H](C(=O)O)NC1=O (H-CKKNSPRLC-OH; disulfide 1-9) | 92.6% | 76.7%
CC(C)C[C@@H]1NC(=O)[C@H](CO)NC(=O)[C@@H]2CCCN2C(=O)[C@H](CO)NC(=O)[C@H](CC(N)=O)NC(=O)[C@H](CCCCN)NC(=O)[C@H](CCCCN)NC(=O)[C@@H](N)CSSC[C@@H](C(=O)O)NC1=O (H-CKKNSPSLC-OH; disulfide 1-9) | 93.8% | 69.4%
C[C@@H]1NC(=O)[C@H]([C@@H](C)O)NC(=O)[C@@H]2CCCN2C(=O)[C@H](CO)NC(=O)[C@H](CC(N)=O)NC(=O)[C@H](CCCCN)NC(=O)[C@H](CCCCN)NC(=O)[C@@H](N)CSSC[C@@H](C(=O)O)NC1=O (H-CKKNSPTAC-OH; disulfide 1-9) |  | 74.1%
C[C@@H](O)[C@@H]1NC(=O)[C@@H]2CCCN2C(=O)[C@H](CO)NC(=O)[C@H](CC(N)=O)NC(=O)[C@H](CCCCN)NC(=O)[C@H](CCCCN)NC(=O)[C@@H](N)CSSC[C@@H](C(=O)O)NC(=O)[C@H](Cc2c[nH]cn2)NC1=O (H-CKKNSPTHC-OH; disulfide 1-9) | 71.5% | 62.6%
CC(C)C[C@@H]1NC(=O)[C@H]([C@@H](C)O)NC(=O)[C@@H]2CCCN2C(=O)[C@H](CO)NC(=O)[C@H](CC(N)=O)NC(=O)[C@H](CCCCN)NC(=O)[C@H](CCCCN)NC(=O)[C@@H](N)CSSC[C@@H](C(=O)O)NC1=O (H-CKKNSPTLC-OH; disulfide 1-9) | 66.4% | 57.5%
C[C@@H](O)[C@@H]1NC(=O)[C@@H]2CCCN2C(=O)[C@H](CO)NC(=O)[C@H](CC(N)=O)NC(=O)[C@H](CCCCN)NC(=O)[C@H](CCCCN)NC(=O)[C@@H](N)CSSC[C@@H](C(=O)O)NC(=O)[C@H](CCC(N)=O)NC1=O (H-CKKNSPTQC-OH; disulfide 1-9) | 82.3% | 74.6%
C[C@@H](O)[C@@H]1NC(=O)[C@H]([C@@H](C)O)NC(=O)[C@@H]2CCCN2C(=O)[C@H](CO)NC(=O)[C@H](CC(N)=O)NC(=O)[C@H](CCCCN)NC(=O)[C@H](CCCCN)NC(=O)[C@@H](N)CSSC[C@@H](C(=O)O)NC1=O (H-CKKNSPTTC-OH; disulfide 1-9) | 84.9% | 66.1%
CC(C)C[C@@H]1NC(=O)[C@H]([C@@H](C)O)NC(=O)[C@@H]2CCCN2C(=O)[C@H]([C@@H](C)O)NC(=O)[C@H](CC(N)=O)NC(=O)[C@H](CCCCN)NC(=O)[C@H](CCCCN)NC(=O)[C@@H](N)CSSC[C@@H](C(=O)O)NC1=O (H-CKKNTPTLC-OH; disulfide 1-9) | 91.6% | 85.7%
